Reference: patent US11028061B2, “Modulators of myocyte lipid accumulation and insulin resistance and methods of use thereof” (Sanford Burnham Prebys Medical Discovery Institute, priority 2015, dated 2021)

Tested on: primary murine skeletal myocytes
Test: TAG accumulation in primary murine skeletal myocytes
Format: cell-based
Details: Mus musculus, read-out: Activity Score (IC50), triacylglyceride (TAG) accumulation

Row | SMILES | IC50
1 | COc1ccc(-c2csc(C(=O)Nc3ccc(OCC(=O)N4CCOCC4)c(OC)c3)n2)cc1 [Cpd. 91, N-(3-methoxy-4-(2-morpholino-2-oxoethoxy)phenyl)-4-(4-methoxyphenyl)thiazole-2-carboxamide] | > 10 µM
2 | CCNc1ccc(C(=O)Nc2nc(-c3ccc(OC)cc3)cs2)cc1OCCO [Cpd. 99, 4-(ethylamino)-3-(2-hydroxyethoxy)-N-(4-(4-methoxyphenyl)thiazol-2-yl)benzamide] | 1 to 10 µM

Same assay, conditions: Mus musculus; primary murine skeletal myocytes; read-out: Activity Score (IC50), triacylglyceride (TAG) accumulation

Row | SMILES | IC50
3 | COCCOc1ccc(-c2csc(NC(=O)c3ccc(OCC(=O)N4CCOCC4)cc3)n2)cc1 [Cpd. 43, N-(4-(4-(2-methoxyethoxy)phenyl)thiazol-2-yl)-4-(2-morpholino-2-oxoethoxy)benzamide] | < 1 µM
4 | CCc1ccc(-c2csc(NC(=O)c3ccc(OCC(=O)N4CCOCC4)cc3)n2)cc1 [Cpd. 44, N-(4-(4-ethylphenyl)thiazol-2-yl)-4-(2-morpholino-2-oxoethoxy)benzamide] | < 1 µM
5 | CC(C)c1ccc(-c2csc(NC(=O)c3ccc(OCC(=O)N4CCOCC4)cc3)n2)cc1 [Cpd. 45, N-(4-(4-isopropylphenyl)thiazol-2-yl)-4-(2-morpholino-2-oxoethoxy)benzamide] | < 1 µM
6 | O=C(Nc1nc(-c2ccc(F)cc2)cs1)c1ccc(OCC(=O)N2CCOCC2)cc1 [Cpd. 46, N-(4-(4-fluorophenyl)thiazol-2-yl)-4-(2-morpholino-2-oxoethoxy)benzamide] | < 1 µM
7 | Cc1ccccc1-c1csc(NC(=O)c2ccc(OCC(=O)N3CCOCC3)cc2)n1 [Cpd. 47, 4-(2-morpholino-2-oxoethoxy)-N-(4-(o-tolyl)thiazol-2-yl)benzamide] | < 1 µM
8 | O=C(Nc1nc(-c2ccccc2Cl)cs1)c1ccc(OCC(=O)N2CCOCC2)cc1 [Cpd. 48, N-(4-(2-chlorophenyl)thiazol-2-yl)-4-(2-morpholino-2-oxoethoxy)benzamide] | < 1 µM
9 | O=C(Nc1nc(-c2ccccc2F)cs1)c1ccc(OCC(=O)N2CCOCC2)cc1 [Cpd. 49, N-(4-(2-fluorophenyl)thiazol-2-yl)-4-(2-morpholino-2-oxoethoxy)benzamide] | < 1 µM
10 | COc1ccccc1-c1csc(NC(=O)c2ccc(OCC(=O)N3CCOCC3)cc2)n1 [Cpd. 50, N-(4-(2-methoxyphenyl)thiazol-2-yl)-4-(2-morpholino-2-oxoethoxy)benzamide] | < 1 µM
11 | Cc1cccc(-c2csc(NC(=O)c3ccc(OCC(=O)N4CCOCC4)cc3)n2)c1 [Cpd. 51, 4-(2-morpholino-2-oxoethoxy)-N-(4-(m-tolyl)thiazol-2-yl)benzamide] | < 1 µM
12 | O=C(Nc1nc(-c2cccc(Cl)c2)cs1)c1ccc(OCC(=O)N2CCOCC2)cc1 [Cpd. 52, N-(4-(3-chlorophenyl)thiazol-2-yl)-4-(2-morpholino-2-oxoethoxy)benzamide] | < 1 µM
13 | O=C(Nc1nc(-c2cccc(F)c2)cs1)c1ccc(OCC(=O)N2CCOCC2)cc1 [Cpd. 53, N-(4-(3-fluorophenyl)thiazol-2-yl)-4-(2-morpholino-2-oxoethoxy)benzamide] | < 1 µM
14 | COc1ccc(-c2csc(NC(=O)c3ccc(OCC(=O)N4CCOCC4)cc3)n2)c(Cl)c1 [Cpd. 54, N-(4-(2-chloro-4-methoxyphenyl)thiazol-2-yl)-4-(2-morpholino-2-oxoethoxy)benzamide] | < 1 µM
15 | CC(C)Oc1ccc(-c2csc(NC(=O)c3ccc(OCC(=O)N4CCOCC4)cc3)n2)c(Cl)c1 [Cpd. 55, N-(4-(2-chloro-4-isopropoxyphenyl)thiazol-2-yl)-4-(2-morpholino-2-oxoethoxy)benzamide] | < 1 µM
16 | COc1ccc(-c2csc(NC(=O)c3ccc(OCC(=O)N4CCOCC4)cc3)n2)c(F)c1 [Cpd. 56, N-(4-(2-fluoro-4-methoxyphenyl)thiazol-2-yl)-4-(2-morpholino-2-oxoethoxy)benzamide] | < 1 µM
17 | COc1ccc(-c2csc(NC(=O)c3ccc(OCC(N)=O)cc3)n2)c(Cl)c1 [Cpd. 57, 4-(2-amino-2-oxoethoxy)-N-(4-(2-chloro-4-methoxyphenyl)thiazol-2-yl)benzamide] | 1 to 10 µM
18 | CNC(=O)COc1ccc(C(=O)Nc2nc(-c3ccc(OC)cc3Cl)cs2)cc1 [Cpd. 58, N-(4-(2-chloro-4-methoxyphenyl)thiazol-2-yl)-4-(2-(methylamino)-2-oxoethoxy)benzamide] | < 1 µM
19 | CCNC(=O)COc1ccc(C(=O)Nc2nc(-c3ccc(OC)cc3Cl)cs2)cc1 [Cpd. 59, N-(4-(2-chloro-4-methoxyphenyl)thiazol-2-yl)-4-(2-(ethylamino)-2-oxoethoxy)benzamide] | < 1 µM
20 | COc1ccc(-c2csc(NC(=O)c3ccc(OCC(=O)N(C)C)cc3)n2)c(Cl)c1 [Cpd. 60, N-(4-(2-chloro-4-methoxyphenyl)thiazol-2-yl)-4-(2-(dimethylamino)-2-oxoethoxy)benzamide] | < 1 µM
21 | COc1ccc(-c2csc(NC(=O)c3ccc(NCC(=O)N4CCOCC4)c(OC)c3)n2)cc1 [Cpd. 75, 3-methoxy-N-(4-(4-methoxyphenyl)thiazol-2-yl)-4-((2-morpholino-2-oxoethyl)amino)benzamide] | < 1 µM
22 | COc1ccc(-c2csc(NC(=O)CCC(=O)N3CCOc4ccccc43)n2)cc1 [Cpd. 81, 4-(2,3-dihydro-4H-benzo[b][1,4]oxazin-4-yl)-N-(4-(4-methoxyphenyl)thiazol-2-yl)-4-oxobutanamide] | < 1 µM

Row | SMILES | IC50
23 | COc1ccc(-c2csc(NC(=O)CCC(=O)N3CCOCC3)n2)cc1 [Cpd. 82, N-(4-(4-methoxyphenyl)thiazol-2-yl)-4-morpholino-4-oxobutanamide] | 1 to 10 µM
24 | COc1cc(C(=O)Nc2cccc(-c3ccccc3)c2)ccc1OCC(=O)N1CCOCC1 [Cpd. 83, N-([1,1′-biphenyl]-3-yl)-3-methoxy-4-(2-morpholino-2-oxoethoxy)benzamide] | > 10 µM
25 | COc1cc(C(=O)Nc2nc(-c3ccccc3)c(Cc3ccccc3)s2)ccc1OCC(=O)N1CCOCC1 [Cpd. 84, N-(5-benzyl-4-phenylthiazol-2-yl)-3-methoxy-4-(2-morpholino-2-oxoethoxy)benzamide] | < 1 µM
26 | COc1cc(C(=O)Nc2nc(Cc3ccccc3)cs2)ccc1OCC(=O)N1CCOCC1 [Cpd. 85, N-(4-benzylthiazol-2-yl)-3-methoxy-4-(2-morpholino-2-oxoethoxy)benzamide] | 1 to 10 µM
27 | O=C(Nc1nc2ccccc2s1)c1ccc(OCC(=O)N2CCOCC2)cc1 [Cpd. 87, N-(benzo[d]thiazol-2-yl)-4-(2-morpholino-2-oxoethoxy)benzamide] | > 10 µM
28 | COc1ccc2nc(NC(=O)c3ccc(OCC(=O)N4CCOCC4)cc3)sc2c1 [Cpd. 88, N-(6-methoxybenzo[d]thiazol-2-yl)-4-(2-morpholino-2-oxoethoxy)benzamide] | 1 to 10 µM
29 | COc1ccc(-c2csc(NCc3ccc(OCC(=O)N4CCOCC4)c(OC)c3)n2)cc1 [Cpd. 89, 2-(2-methoxy-4-(((4-(4-methoxyphenyl)thiazol-2-yl)amino)methyl)phenoxy)-1-morpholinoethan-1-one] | 1 to 10 µM
30 | COc1ccc(-c2csc(NC(=O)c3ccc(OCCN4CCOCC4)c(OC)c3)n2)cc1 [Cpd. 90, 3-methoxy-N-(4-(4-methoxyphenyl)thiazol-2-yl)-4-(2-morpholinoethoxy)benzamide] | 1 to 10 µM
31 | COc1ccc(-c2csc(NC(=O)c3ccc(OCC(=O)N4CCOCC4)cn3)n2)cc1 [Cpd. 92, N-(4-(4-methoxyphenyl)thiazol-2-yl)-5-(2-morpholino-2-oxoethoxy)picolinamide] | > 10 µM
32 | COc1ccc(-c2csc(NC(=O)c3ccc(OCC(=O)N4CCOCC4)nc3)n2)cc1 [Cpd. 93, N-(4-(4-methoxyphenyl)thiazol-2-yl)-6-(2-morpholino-2-oxoethoxy)nicotinamide] | > 10 µM
33 | COc1ccc(-c2csc(NC(=O)c3cccc(OCC(=O)N4CCOCC4)c3)n2)cc1 [Cpd. 94, N-(4-(4-methoxyphenyl)thiazol-2-yl)-3-(2-morpholino-2-oxoethoxy)benzamide] | 1 to 10 µM
34 | O=C(Nc1nc(-c2ccccc2)cs1)c1cccc(OCC(=O)N2CCOCC2)c1 [Cpd. 95, 3-(2-morpholino-2-oxoethoxy)-N-(4-phenylthiazol-2-yl)benzamide] | 1 to 10 µM
35 | COc1cccc(-c2csc(NC(=O)c3cccc(OCC(=O)N4CCOCC4)c3)n2)c1 [Cpd. 96, N-(4-(3-methoxyphenyl)thiazol-2-yl)-3-(2-morpholino-2-oxoethoxy)benzamide] | 1 to 10 µM
36 | COc1ccc(-c2csc(NC(=O)C3CCC(OCC(=O)N4CCOCC4)CC3)n2)cc1 (stereo not drawn) [Cpd. 97, N-(4-(4-methoxyphenyl)thiazol-2-yl)-4-(2-morpholino-2-oxoethoxy)cyclohexane-1-carboxamide] | > 10 µM
37 | COc1ccc(Cc2cnc(NC(=O)c3ccc(OCC(=O)N4CCOCC4)c(OC)c3)s2)cc1 [Cpd. 98, 3-methoxy-N-(5-(4-methoxybenzyl)thiazol-2-yl)-4-(2-morpholino-2-oxoethoxy)benzamide] | 1 to 10 µM
38 | COc1cc(C(=O)Nc2ncc(Cc3cccc(C(F)(F)F)c3)s2)ccc1OCC(=O)N1CCOCC1 [Cpd. 100, 3-methoxy-4-(2-morpholino-2-oxoethoxy)-N-(5-(3-(trifluoromethyl)benzyl)thiazol-2-yl)benzamide] | > 10 µM
39 | CNC(=O)CNc1ccc(C(=O)Nc2nc(-c3ccc(OC)cc3)cs2)cc1 [compound 67, N-(4-(4-methoxyphenyl)thiazol-2-yl)-4-((2-(methylamino)-2-oxoethyl)amino)benzamide] | < 1 µM
40 | COc1ccc(-c2csc(NC(=O)c3ccc(NCC(=O)N(C)C)cc3)n2)cc1 [compound 68, 4-((2-(dimethylamino)-2-oxoethyl)amino)-N-(4-(4-methoxyphenyl)thiazol-2-yl)benzamide] | < 1 µM
41 | COCCNC(=O)CNc1ccc(C(=O)Nc2nc(-c3ccc(OC)cc3)cs2)cc1 [compound 69, 4-((2-((2-methoxyethyl)amino)-2-oxoethyl)amino)-N-(4-(4-methoxyphenyl)thiazol-2-yl)benzamide] | > 10 µM
42 | COc1ccc(-c2csc(NC(=O)c3ccc(NCC(=O)N4CCOCC4)cc3)n2)c(Cl)c1 [compound 70, N-(4-(2-chloro-4-methoxyphenyl)thiazol-2-yl)-4-((2-morpholino-2-oxoethyl)amino)benzamide] | < 1 µM
